Measured values reported in US20150105252A1, “SUBSTITUTED PYRAZOLES AS HERBICIDES” (E I DU PONT DE NEMOURS AND COMPANY, priority 2013, published 2015).

Assays:
[1] = system: lambsquarters; assay: Test C preemergence; type: in vivo, Chenopodium album
Method in brief: (§1)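 Greenhouse pot test: preemergence application onto freshly seeded loam/sand mix, postemergence application onto seedlings (1–4 leaves, 2–18 cm) in peat-vermiculite substrate. Responses scored visually 13 to 15 days later relative to controls, where 0 means no effect and 100 means complete control; a dash indicates no result.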

[2] = system: blackgrass; assay: Test C postemergence; type: in vivo, Alopecurus myosuroides
Method in brief: as §1

[3] = system: ryegrass, Italian; assay: Test C postemergence; type: in vivo, Lolium multiflorum
Method in brief: as §1

[4] = system: galium; assay: Test C postemergence; type: in vivo, Galium aparine
Method in brief: as §1

[5] = system: crabgrass, large; assay: Test C postemergence; type: in vivo, Digitaria sanguinalis
Method in brief: as §1

[6] = system: foxtail, giant; assay: Test C postemergence; type: in vivo, Setaria faberii
Method in brief: as §1

[7] = system: lambsquarters; assay: Test C postemergence; type: in vivo, Chenopodium album
Method in brief: as §1

[8] = system: morningglory; assay: Test C postemergence; type: in vivo, Ipomoea coccinea
Method in brief: as §1

[9] = system: nutsedge, yellow; assay: Test C postemergence; type: in vivo, Cyperus esculentus
Method in brief: as §1

[10] = system: barnyardgrass; assay: Test C postemergence; type: in vivo, Echinochloa crus-galli
Method in brief: as §1

[11] = system: oilseed rape; assay: Test C postemergence; type: in vivo, Brassica napus
Method in brief: as §1

[12] = system: waterhemp; assay: Test C postemergence; type: in vivo, Amaranthus rudis
Method in brief: as §1

[13] = system: oat, wild; assay: Test C postemergence; type: in vivo, Avena fatua
Method in brief: as §1

[14] = system: kochia; assay: Test C postemergence; type: in vivo, Kochia scoparia
Method in brief: as §1

[15] = system: velvetleaf; assay: Test C postemergence; type: in vivo, Abutilon theophrasti
Method in brief: as §1

[16] = Postemergence, 31 g ai/ha, visually evaluated after 13 to 15 days
[17] = postemergence, 62 g ai/ha, scale 0 to 100
[18] = postemergence, 125 g ai/ha, scale 0 to 100, 0 no effect, 100 complete control

For `CCc1cc(C(=O)NOC(C)C)nn1Cc1ccnc(C(F)(F)F)c1` [Compound 101], the “Plant response rating, Lambsquarters” value ([1]; Preemergence, 16 g ai/ha, scale 0 to 100) was 85, the “Lambsquarters plant response rating” value ([1]; preemergence, 31 g ai/ha, visual rating, scale 0 to 100 (0 no effect, 100 complete control), 13 to 15 days) was 85 and the “Plant response rating, Lambsquarters” value ([1]; preemergence, 62 g ai/ha, 13 to 15 days, scale 0 to 100, 0 = no effect, 100 = complete control) was 85. The “Lambsquarters plant response rating” value ([1]; preemergence, 125 g ai/ha, scale 0 to 100, 0 is no effect, 100 is complete control) was 95, the “Plant response rating (scale of 0 to 100), Blackgrass” value ([2]; Postemergence, 16 g ai/ha) was 5 and the “Plant response rating (scale of 0 to 100 where 0 is no effect and 100 is complete control), Blackgrass” value [2, 16] was 5. For the same compound, the “Blackgrass plant response rating” value [2, 17] was 5, the “Plant response rating, Blackgrass” value [2, 18] was 15 and the “Plant response rating (scale of 0 to 100), Ryegrass, Italian” value ([3]; Postemergence, 16 g ai/ha) was 5. For the same compound, the “Plant response rating (scale of 0 to 100 where 0 is no effect and 100 is complete control), Ryegrass, Italian” value [3, 16] was 5, the “Ryegrass, Italian plant response rating” value [3, 17] was 5 and the “Plant response rating, Ryegrass, Italian” value [3, 18] was 10. The “Plant response rating (scale of 0 to 100), Galium” value ([4]; Postemergence, 16 g ai/ha) was 20, the “Plant response rating (scale of 0 to 100 where 0 is no effect and 100 is complete control), Galium” value [4, 16] was 35 and the “Galium plant response rating” value [4, 17] was 50. For the same compound, the “Plant response rating, Galium” value [4, 18] was 55, the “Plant response rating (scale of 0 to 100), Crabgrass, Large” value ([5]; Postemergence, 16 g ai/ha) was 5 and the “Plant response rating (scale of 0 to 100 where 0 is no effect and 100 is complete control), Crabgrass, Large” value [5, 16] was 5. For the same compound, the “Crabgrass, Large plant response rating” value [5, 17] was 15, the “Plant response rating, Crabgrass, Large” value [5, 18] was 20 and the “Plant response rating (scale of 0 to 100), Foxtail, Giant” value ([6]; Postemergence, 16 g ai/ha) was 10. For the same compound, the “Plant response rating (scale of 0 to 100 where 0 is no effect and 100 is complete control), Foxtail, Giant” value [6, 16] was 10, the “Foxtail, Giant plant response rating” value [6, 17] was 30 and the “Plant response rating, Foxtail, Giant” value [6, 18] was 65. For the same compound, the “Plant response rating (scale of 0 to 100), Lambsquarters” value ([7]; Postemergence, 16 g ai/ha) was 50, the “Plant response rating (scale of 0 to 100 where 0 is no effect and 100 is complete control), Lambsquarters” value [7, 16] was 50 and the “Lambsquarters plant response rating” value [7, 17] was 65. The “Plant response rating, Lambsquarters” value [7, 18] was 75, the “Plant response rating (scale of 0 to 100), Morningglory” value ([8]; Postemergence, 16 g ai/ha) was 60 and the “Plant response rating (scale of 0 to 100 where 0 is no effect and 100 is complete control), Morningglory” value [8, 16] was 60. For the same compound, the “Morningglory plant response rating” value [8, 17] was 65, the “Plant response rating, Morningglory” value [8, 18] was 95 and the “Plant response rating (scale of 0 to 100), Nutsedge, Yellow” value ([9]; Postemergence, 16 g ai/ha) was 5. For the same compound, the “Plant response rating (scale of 0 to 100 where 0 is no effect and 100 is complete control), Nutsedge, Yellow” value [9, 16] was 5, the “Nutsedge, Yellow plant response rating” value [9, 17] was 5 and the “Plant response rating, Nutsedge, Yellow” value [9, 18] was 40. The “Plant response rating (scale of 0 to 100), Barnyardgrass” value ([10]; Postemergence, 16 g ai/ha) was 5, the “Plant response rating (scale of 0 to 100 where 0 is no effect and 100 is complete control), Barnyardgrass” value [10, 16] was 5 and the “Barnyardgrass plant response rating” value [10, 17] was 5. The “Plant response rating, Barnyardgrass” value [10, 18] was 5, the “Plant response rating (scale of 0 to 100), Oilseed Rape” value ([11]; Postemergence, 16 g ai/ha) was 5 and the “Plant response rating (scale of 0 to 100 where 0 is no effect and 100 is complete control), Oilseed Rape” value [11, 16] was 5. The “Oilseed Rape plant response rating” value [11, 17] was 5, the “Plant response rating, Oilseed Rape” value [11, 18] was 5 and the “Plant response rating (scale of 0 to 100), Waterhemp” value ([12]; Postemergence, 16 g ai/ha) was 10. For the same compound, the “Plant response rating (scale of 0 to 100 where 0 is no effect and 100 is complete control), Waterhemp” value [12, 16] was 30, the “Waterhemp plant response rating” value [12, 17] was 35 and the “Plant response rating, Waterhemp” value [12, 18] was 75. The “Plant response rating (scale of 0 to 100), Oat, Wild” value ([13]; Postemergence, 16 g ai/ha) was 0, the “Plant response rating (scale of 0 to 100 where 0 is no effect and 100 is complete control), Oat, Wild” value [13, 16] was 0 and the “Oat, Wild plant response rating” value [13, 17] was 5. For the same compound, the “Plant response rating, Oat, Wild” value [13, 18] was 10, the “Plant response rating (scale of 0 to 100), Kochia” value ([14]; Postemergence, 16 g ai/ha) was 40 and the “Plant response rating (scale of 0 to 100 where 0 is no effect and 100 is complete control), Kochia” value [14, 16] was 60. For the same compound, the “Kochia plant response rating” value [14, 17] was 65, the “Plant response rating, Kochia” value [14, 18] was 65 and the “Plant response rating (scale of 0 to 100), Velvetleaf” value ([15]; Postemergence, 16 g ai/ha) was 10. The “Plant response rating (scale of 0 to 100 where 0 is no effect and 100 is complete control), Velvetleaf” value [15, 16] was 15, the “Velvetleaf plant response rating” value [15, 17] was 25 and the “Plant response rating, Velvetleaf” value [15, 18] was 30.
